Source: article PMC5507300, “Antibacterial small molecules targeting the conserved TOPRIM domain of DNA gyrase” (PLoS ONE, 2017)
≈ marks a conversion by molar mass, not a printed value. Where “and” joins values, the source holds several entries; their conditions need not be identical. Identical values can stand only once. Like-named read-outs stand apart in the source and are kept apart here.

Assays:
Format in all cases: cell-based
[1] = system: P. aeruginosa MB5919 (PAO1); assay: Broth microdilution MIC, P. aeruginosa MB5919; conditions: Pseudomonas aeruginosa
Text: (§1) E. coli HS151 (ΔtolC) has been described previously. […] E. coli BW25113 and the Keio gene deletion collection based on BW25113 [25] were obtained from Thermo Fisher Scientific (Waltham, MA) and described in [26]. The plasmid-borne FQ resistance determinant, qnrVC3 [27], was kindly provided by D. Hooper (Massachusetts General Hospital). […] MB2884 (E. coli) and CL15245 (K. pneumoniae) are clinical isolates from the Merck & Co., Inc., Kenilworth, NJ, USA, strain collection. S. aureus COL is a methicillin-resistant clinical isolate.
(§2) Compound doubling dilutions were prepared in 100% DMSO (Sigma Aldrich) and 2 μL of each dilution was transferred to a 96-well plate with lid (Thermo Scientific). Inoculum for all MIC testing was prepared using the BBL Prompt Inoculation System (Becton Dickinson, Franklin Lakes, NJ USA) as described by the manufacturer to produce a suspension of cells at approximately 1.5 x 10^8 colony forming units (CFU)/mL [34–36] and a further dilution (1:1000) was made into cation adjusted Mueller-Hinton broth (CAMH broth, Becton-Dickinson). One hundred μL of this inoculum were then transferred to each well of the 96-well plate containing diluted compound (above). Plates were covered and incubated overnight (18 hrs.) at 37°C.

[2] = system: E. coli GYR103 GyrB L446Q; assay: microbe, parasite or virus in culture; conditions: Escherichia coli
Text: (§3) E. coli HS151 (ΔtolC) has been described previously. Gyrase inhibitor-resistant isolates (GYR101-108) were derived by selection for spontaneous resistance to MRL-770 or MRL-423 (Fig 1) in E. coli HS151 as described below. E. coli BW25113 and the Keio gene deletion collection based on BW25113 [25] were obtained from Thermo Fisher Scientific (Waltham, MA) and described in [26]. The plasmid-borne FQ resistance determinant, qnrVC3 [27], was kindly provided by D. Hooper (Massachusetts General Hospital). MB9796 (A. baumannii) is a derivative of MB9797 (ATCC19606) lacking lipopolysaccharide. The efflux-defective P. aeruginosa strain MB5890 (CB398) is a derivative of MB5919 (PAO1). MB2884 (E. coli) and CL15245 (K. pneumoniae) are clinical isolates from the Merck & Co., Inc., Kenilworth, NJ, USA, strain collection. S. aureus COL is a methicillin-resistant clinical isolate.
as §2
After the agar solidified, 5 μL of a saturated bacterial culture, grown in CAMH broth, were dispensed on the agar surface and allowed to dry at room temperature. […] To select for resistance, a 100 mm petri dish was filled with 25 mL CAMH agar containing 8 μg/mL MRL-770 or 0.5 μg/mL MRL-423 (Fig 1). The cells in 1 mL of an overnight culture of E. coli HS151 (~10^9 CFU/mL) were concentrated by centrifugation and spread onto the surface of an MRL-770 or MRL-423 containing plate. After the surface dried at room temperature the plate was incubated at 37°C overnight. Any colonies that arose were counted and an approximate frequency of resistance was calculated after confirming resistance by restreaking on media containg compound as well as measuring MICs (see Results). Genomic DNA from the parent strain (E. coli HS151) and purified (restreaked) resistant isolates was obtained with a GeneJET genomic DNA purification kit according to the manufacturer’s instructions (Fisher Scientific). Assembled whole genome mutant sequences were then compared to the parent strain and polymorphisms were identified as described.

HeLa Cell = assay: HeLa cell cytotoxicity; conditions: for EC50: Homo sapiens, HeLa, Average value (n = 2), cytotoxicity; for Fold above MIC: HeLa EC50 relative to MIC for E. coli HS151
[3] = system: A. baumanii MB9797 (ATCC19606); assay: Broth microdilution MIC, A. baumannii MB9797; conditions: Acinetobacter baumannii
Text: as §3, §2

E. coli CIP101 GyrA D87N = assay: microbe, parasite or virus in culture; conditions: Escherichia coli
Experimental: as §2

E. coli HS151 (ΔtolC) = assay: microbe, parasite or virus in culture; conditions: Escherichia coli
Text: as §1, §2

[4] = system: P. aeruginosa(effluxΔ) MB5890; assay: microbe, parasite or virus in culture; conditions: Pseudomonas aeruginosa
Text: as §1, §2

[5] = system: E. coli MB2884 (clinical isolate); assay: Broth microdilution MIC, E. coli MB2884; conditions: Escherichia coli
Text: as §1, §2

[6] = system: K. pneumoniae CL15245 (clinical isolate); assay: Broth microdilution MIC, K. pneumoniae CL15245; conditions: Klebsiella pneumoniae
Text: as §1, §2

S. aureus (MRSA) COL = assay: Broth microdilution MIC, S. aureus COL; conditions: Staphylococcus aureus, MRSA
Text: as §3, §2

[7] = system: A. baumannii ΔlpxC MB9796; assay: Broth microdilution MIC, A. baumannii MB9796; conditions: Acinetobacter baumannii
Text: as §3, §2

[8] = system: E. coli GYR104 GyrB L470I; assay: microbe, parasite or virus in culture; conditions: Escherichia coli
Text: as §1, §2
(§4) After the agar solidified, 5 μL of a saturated bacterial culture, grown in CAMH broth, were dispensed on the agar surface and allowed to dry at room temperature. […] After the surface dried at room temperature the plate was incubated at 37°C overnight. […] Genomic DNA from the parent strain (E. coli HS151) and purified (restreaked) resistant isolates was obtained with a GeneJET genomic DNA purification kit according to the manufacturer’s instructions (Fisher Scientific). Assembled whole genome mutant sequences were then compared to the parent strain and polymorphisms were identified as described.

[9] = system: E. coli GYR106 GyrB F513L/A468V; assay: microbe, parasite or virus in culture; conditions: Escherichia coli
Text: as §1, §2, §4

[10] = system: E. coli GYR101 GyrB F513L; assay: microbe, parasite or virus in culture; conditions: Escherichia coli
Text: as §1, §2, §4

[11] = system: E. coli GYR108 GyrB L470I/V467L; assay: microbe, parasite or virus in culture; conditions: Escherichia coli
Text: as §1, §2, §4

[12] = system: E. coli GYR102 GyrB E466EV; assay: microbe, parasite or virus in culture; conditions: Escherichia coli
Text: as §1, §2, §4

[13] = system: E. coli GYR105 GyrB T469K; assay: microbe, parasite or virus in culture; conditions: Escherichia coli
Text: as §1, §2, §4

[14] = system: E. coli GYR107 GyrB F513L/L422V; assay: microbe, parasite or virus in culture; conditions: Escherichia coli
Text: as §1, §2, §4

[15] = Table 2, HS151, GyrB mutation none
[16] = read-out: E. coli HS151 MIC, S1 Table

Row | SMILES | MIC [1] [µg/mL] | MIC [2] [µg/mL] | EC50 (HeLa Cell) [µM] | MIC [3] [µg/mL] | MIC (E. coli CIP101 GyrA D87N) [µg/mL] | MIC (E. coli HS151 (ΔtolC); Table 1, HS151 E. coli ΔtolC) [µg/mL] | MIC (E. coli HS151 (ΔtolC); [15]) [µg/mL] | MIC (E. coli HS151 (ΔtolC); [16]) [µM] | MIC [4] [µg/mL] | MIC [5] [µg/mL] | MIC [6] [µg/mL] | MIC (S. aureus (MRSA) COL) [µg/mL] | MIC [7] [µg/mL] | MIC [8] [µg/mL] | MIC [9] [µg/mL] | MIC [10] [µg/mL] | MIC [11] [µg/mL] | MIC [12] [µg/mL] | MIC [13] [µg/mL] | MIC [14] [µg/mL] | other results
1 | Cn1ncc2cc(-c3cnnn3C3CCN(C(=O)Nc4cc(Cl)cc(Cl)c4)CC3)ccc21 [MRL-423] | > 64 | 0.5 (≈ 1.06 µM) | 27.1 | > 64 | 0.25 (≈ 0.532 µM) | 0.25 | 0.25 | 0.53 | 1 (≈ 2.13 µM) | > 64 | > 64 | > 64 | 0.5 (≈ 1.06 µM) | 1 (≈ 2.13 µM) | > 64 | 2 (≈ 4.25 µM) | > 64 | > 64 | 1 (≈ 2.13 µM) | > 64 | MIC (E. coli HS151 (ΔtolC); Table 3, HS151): 0.25 µg/mL
2 | COc1ccc(C)cc1NC(=O)N1CCC(n2nncc2-c2ccc3c(cnn3C)c2)CC1 [MRL-770] | > 64 | > 64 | > 100 | > 64 | 2 (≈ 4.49 µM) | 2 | 2 | 4.5 | 4 (≈ 8.98 µM) | > 64 | > 64 | > 64 | 4 (≈ 8.98 µM) | > 64 | > 64 | > 64 | > 64 | > 64 | 1 (≈ 2.24 µM) | > 64 | Fold above MIC (HeLa Cell): > 22 fold; MIC (E. coli HS151 (ΔtolC); read-out: minimum inhibitory concentration (MIC), quoted in text with macromolecule labeling in E. coli JL553, strain not named at place, value equals HS151): 4.5 µM and 2 µg/mL
3 | Cn1ncc2cc(-c3nnnn3C3CCN(C(=O)Nc4ccc(Cl)c(Cl)c4)CC3)ccc21 [MRL-1082] | > 64 | 0.0625 (≈ 0.133 µM) | 18.2 | > 64 | 0.125 (≈ 0.265 µM) | 0.0625 | 0.0625 | 0.13 | 0.25 (≈ 0.53 µM) | > 64 | > 64 | > 64 | 0.5 (≈ 1.06 µM) | 0.25 (≈ 0.53 µM) | > 64 | > 64 | 2 (≈ 4.24 µM) | 8 (≈ 17 µM) | 0.25 (≈ 0.53 µM) | > 64 | Fold above MIC (HeLa Cell): 140 fold; MIC (E. coli HS151 (ΔtolC); Fig 4 legend, E. coli HS151): 0.0625 µg/mL
